Results on one compound are retold here after patent US20120190656A1, “METHODS FOR SELECTING […] TO IMPROVE HDL CHOLESTEROL AND TR[…]” (priority 2010, published 2012).

Each structure is given as a SMILES string.

Experiment [1] concerns triglyceride levels. Briefly: Population studies (collective sample), maximum likelihood models of triglycerides versus vitamin D intake and genotype. Format: in vivo, human. The protocol: (§1) Study populations. Factors associated with cardiovascular disease were analyzed using samples from an Aging study population from Utah (“Aging” or “Utah” sample), which included approximately 2500 subjects in 98 Utah pedigrees with 2 or more probands such as, e.g., early stroke, coronary heart disease death, or hypertension. Details regarding subject selection have been previously published. See Williams et al., Recruitment of members of high-risk Utah pedigrees. Control Clin Trials 8: 105S-114S (1987); see also Table 2 below. Additional follow-up assessments were performed, where a validated dietary survey was administered, lipid profiles were determined, DNA was obtained, and standard cardiovascular risk factors were measured. See Hunt et al., Predictors of an increased risk of future hypertension in Utah. A screening analysis. Hypertension 17: 969-976 (1991). In some of the following examples results are described for subjects selected from the foregoing population, wherein samples were excluded if they lacked data relating to complete lipid profiles, genetic polymorphism data, or dietary survey data (n=1060 subjects in 96 families for HDL analysis, and n=1057 subjects in 70 families for triglyceride analysis).
(§2) A replication cohort, moreover, consisted of 5243 caucasian subjects from the NHLBI Family Heart Study (“FamHS” or “FHS” sample), which were not previously administered cholesterol modifying medications. Data for these subjects included lipid profiles and genetic analyses, as described. See Heard-Costa et al., NRXN3 is a novel locus for waist circumference: a genome-wide association study from the CHARGE Consortium. PLoS Genet 5: e1000539 (2009). These population-based families were gathered as part of four studies: the Framingham Heart Study, the Utah Family Tree Study, and ARIC centers in Minneapolis and Forsyth County, N.C. (n=2890 individuals in 504 families; see Table 2 for sample characteristics).
(§3) Both the Aging and FamHS samples were subdivided by season (see Table 2) when measuring both diet and lipids levels. Winter subsamples included data analyzed from November to March and consisted of 362 Aging subjects and 1006 FamHS subjects as shown below in Table 2. Because HDL and triglyceride levels are inversely correlated, vitamin D-triglyceride interactions were also measured from the foregoing samples, as further described below.
(§4) Dietary questionnaire and winter subsamples. Vitamin D intake was measured both in the Aging and FHS samples via a staff-administered semi-quantitative food frequency questionnaire with reproducibility and validity. See, e.g., Willett et al., Reproducibility and validity of a semiquantitative food frequency questionnaire. Am J Epidemiol 122: 51-65 (1985). […] See Jacques et al., Comparison of micronutrient intake measured by a dietary questionnaire and biochemical indicators of micronutrient status. Am J Clin Nutr 57: 182-189 (1993).
(§5) Accordingly, the Aging and FHS studies were subdivided into seasonal and lipid measurement cohorts, both of which occurred at the same clinic visit for the subject.
(§6) Study design and analysis for the aging and FHS samples. jPAP software (see Hasstedt et al., jPAP: Document-driven software for genetic analysis. Genet Epidemiol 29 (2005)), was employed for maximum likelihood analysis, correction of potential covariates, and to estimate heritability attributable to gene-environment interaction factors (interaction) measured as changes in estimated polygenic variance. Natural log transformed HDL was employed as the dependent variable, and all maximum likelihood models included age, sex, and log transformed BMI as baseline covariates. […] Analyses were performed separately for the entire Aging sample and the Aging winter subsample. The results were confirmed using the FHS sample population. […]

The test system of experiment [2] is HDL levels. Briefly: Population studies (Aging, FHS, collective sample), maximum likelihood models of HDL versus vitamin D intake and genotype. Format: in vivo, human. The settings on record: for increase of HDL: vitamin D deficient subjects, retrospective studies. The protocol:
as §1, §2, §3, §4, §5, §6

[3] abbreviates: wintertime vitamin D intake raised from 50 IU to 550 IU, heterozygous G/C at rs3135506, model estimate.
Where [4] appears, read: wintertime vitamin D intake raised from 50 IU to 550 IU, homozygous C/C at rs3135506, model estimate.

For the compound `C=C1/C(=C\C=C2/CCC[C@]3(C)[C@@H]([C@H](C)CCCC(C)(C)O)CC[C@@H]23)C[C@@H](O)C[C@@H]1O` [vitamin D, 1,25-dihydroxyvitamin D3], the “effect of vitamin D on triglyceride levels” value in experiment [1] (collective sample, entire, patients with rs3135506 polymorphism, p=0.33) is given as “did not have a significant effect”. The “decrease of triglyceride levels” value is listed as 5% in experiment [1] (vitamin D deficient subjects, heterozygous for a vitamin D sensitive allele, retrospective studies); 10% in experiment [1] (vitamin D deficient subjects, homozygous for a vitamin D sensitive allele, retrospective studies); 50 mg/dL in experiment [1] (setting [3]); 125 mg/dL in experiment [1] (setting [4]). Further, the increase of triglycerides in experiment [1] (wintertime vitamin D intake raised from 50 IU to 550 IU, homozygous G/G at rs3135506 (wild-type), model estimate) was 2 mg/dL. The “association of vitamin D alone with HDL levels” value in experiment [2] (FHS study population, entire sample) is on record as “not associated with an increase in patient HDL levels”. The “increase of HDL” value in experiment [2] (heterozygous for a vitamin D sensitive allele) worked out at 5%; in experiment [2] (homozygous for a vitamin D sensitive allele), 10%. Besides, the “increase of HDL cholesterol” value in experiment [2] (setting [3]) was “approximately 10 mg/dL”; in experiment [2] (setting [4]), “approximately 20 mg/dL”. Moreover, the “decrease of HDL cholesterol” value in experiment [2] (wintertime vitamin D intake raised from 50 IU to 550 IU, homozygous G/G at rs3135506, model estimate) is given as “approximately 0.5 mg/dL”.
